Experimental data taken from patent publication US20090247520A1, “INHIBITORS OF ANTIGEN RECEPTOR-INDUCED NF-kappa B ACTIVATION” (The Burnham Institute for Medical Research, priority 2008, published 2009).
Where two headings read alike, the source gives them in different places.

Assays:
[1] = test system: PMA/Ionomycin-stimulated IL-8 production; assay: PMA/Ionomycin-stimulated IL-8 production by HEK293 reporter cells (ELISA); type: cell-based, human
Experimental: (§1) (A) Structures of two hit compounds, CID-2858522 (left) and CID-2998237 (right) are shown; (B, C) 293-NF-κB-luc cells were pretreated for 2 hrs with various concentration of either CID-2858522 (B) or CID-29982387 (C) and then stimulated with TNF (10 ng/mL) or PMA/lonomycin (10 ng/mL; 5 ng/mL) for 16 h. Luciferase activity was measured and data were expressed as a percentage relative to control treatment with DMSO only (mean±SD; n=3). (D) 293-NF-κB-luc cells were pretreated for 2 h with various concentrations of CID-2858522 or CID-2998237, then stimulated with PMA/lonomycin for 16 h. IL-8 release into the medium was measured, expressing data as a percentage relative to control cultures treated with DMSO (mean±SD; n=3). (E) 293-NF-κB-luc cells were pretreated with CID-2858522 and then stimulated with PDBu for 16 h, IL-8 production and NF-κB luciferase activity were measured as above. (F) 293-NF-κB-luc cells were pretreated for 2 h with various concentrations of CID-2858522 or a PKC inhibitor (Bisindolylmaleimide I) at 1 μM followed by PMA/Ionomycin (10 ng/mL) stimulation for 2 h, then p65-DNA-binding activity was measured in nuclear extracts (10 μg protein), expressing data as fold-increase relative to unstimulated cells (mean±SD; n=3).
Lymphokine measurements. Human IL-2 or IL-8 levels in culture medium were measured by Enzyme-Linked Immunosorbent Assays (ELISAs), using BD OptEIA ELISAs (BD Biosciences, San Diego, Calif.), according to the manufacturer's protocol, using 96-well ELISA plates (BD Biosciences) and measuring absorbance within 30 minutes of initiating reactions using a SpectraMax 190 spectrophotometer (Molecular Devices).

[2] = test system: IKK-β phosphorylation; assay: PMA/Ionomycin-induced IKK-β phosphorylation in HEK293 cells; type: cell-based; settings: 4 μM
Experimental: FIG. 7. CID-285852 inhibits IKKβ phosphorylation induced by PKC activators. (A) HEK293 cells were cultured in 0.5% FBS medium for 24 h and then treated with CID-2858522 (4 μM) or PKC inhibitor, Bisindolylmaleimide I (1 μM) for 2 hrs followed by PMA/Ionomycin (10 ng/mL; 5 ng/mL) for 2 h. Cell lysates were subjected to immunoprecipitation using anti-CARMA1 antibody and analyzed by immunoblotting with anti-phospho-CARMA1 antibody or anti-CARMA1 antibody. (B-E) HEK293 cells were transfected with plasmids encoding myc-CARMA1 in combination with plasmids encoding various other proteins including Caspase-8 (cys287ala) (B), HA-IKK-γ (C), HA-TAK1 (D), and TRAF6 (E). After 36 h. cells were cultured in 0.5% FBS medium for 12 h and then treated with CID-2858522 (4 μM) or Bisindolylmaleimide I (1 μM) for 2 hrs, followed by PMA/Ionomycin treatment (10 ng/mL; 5 ng/mL) for 2 hrs. Cell lysates were immunoprecipated using anti-myc antibody and analyzed by immunoblotting using anti-Caspase8 (B), anti-HA (C,D), or anti-TRAF6 (E) antibodies. […] Cell lysates were normalized for protein content and analyzed by immunoblotting using anti-FLIP and anti-alpha-tubulin antibodies. […] Cell lysates were immunoprecipitated using anti-IKK-β and analyzed by immunoblotting using anti-phospho-IKK-β antibody or anti-IKK-β antibody (as loading control). […]

[3] = test system: PDB-induced NF-κB reporter gene activity; assay: PDBu-induced NF-κB reporter gene activity in HEK293 cells; type: cell-based; settings: Homo sapiens
Experimental: as §1
HTS. […] Plates were analyzed within 30 seconds with a Criterion Analyst™ using the luminescence method (0.1 second read/well).

[4] = test system: PMA/Ionomycin-induced NF-κB reporter gene activity; assay: Transient transfection NF-κB-luciferase reporter assay (episomal plasmid), PMA/Ionomycin; type: cell-based; settings: not shown
Experimental: Dual-luciferase assay for NF-κB activity. Cells seeded in 96 well black plates were co-transfected with Renilla luciferase plasmid and NF-κB-responsive firefly luciferase reporter gene plasmid, with pcDNA3 control or plasmids encoding various desired proteins, using Lipofectamine 2000. The culture medium was aspirated and cells were washed with PBS, prior to adding 50 μL per well of Passive Lysis Buffer (Promega), followed by addition of Dual-luciferase assay reagent (Promega) and measurement of firefly and renilla luciferase activity, using a spectrofluorimeter.

## Cc1cc2nc(NCCCO)n(CC(=O)c3cc(C(C)(C)C)c(O)c(C(C)(C)C)c3)c2cc1C [Compound 1, 2-(2-(3-Hydroxypropylamino)-5,6-dimethyl-1H-benzo[d]imidazol-1-yl)-1-(3,5-di-tert-butyl-4-hydroxyphenyl)ethanone]
[1]; Homo sapiens
  IC50: < 100 nM
[1]; PMA/Ionomycin
  concentration at which maximum suppression of IL-8 production is achieved: 1 µM
[2]
  inhibition of PMA/Ionomycin-induced IKK-β phosphorylation: significantly inhibited
[3]; read-out: IC50, PDB-induced NF-κB reporter gene activity
  IC50: 70 nM
[3]; read-out: IC50, PDBu-induced NF-κB reporter gene assay (cellular potency)
  IC50: < 100 nM
[4]
  inhibition of NF-κB reporter in transient transfection assay: potently inhibited
